Reference: BindingDB's records for doi:10.1021/acsmedchemlett.5b00050 (Genomics Institute of The Novartis Research Foundation, 2015)
Values belong to the compound of their own block, whether it stands above or below them.

What was measured:
[1] = Inhibition of Tel-fused FMS (unknown origin) expressed in mouse BA/F3 cells after 48 hrs by luciferase reporter gene assay in absence of recombinant mouse IL3
[2] = Inhibition of Tel-fused FGR (unknown origin) expressed in mouse BA/F3 cells after 48 hrs by luciferase reporter gene assay in absence of recombinant mouse IL3
[3] = Inhibition of Tel-fused ROS (unknown origin) expressed in mouse BA/F3 cells after 48 hrs by luciferase reporter gene assay in absence of recombinant mouse IL3
[4] = Inhibition of Tel-fused BMX (unknown origin) expressed in mouse BA/F3 cells after 48 hrs by luciferase reporter gene assay in absence of recombinant mouse IL3
[5] = Inhibition of Tel-fused KIT (unknown origin) expressed in mouse BA/F3 cells after 48 hrs by luciferase reporter gene assay in absence of recombinant mouse IL3
[6] = Inhibition of Tel-fused TRKB (unknown origin) overexpressed in mouse BA/F3 cells assessed as inhibition of cell proliferation after 48 hrs by luciferase reporter gene assay in absence of recombinant mouse IL3
[7] = Inhibition of Tel-fused TRKC (unknown origin) overexpressed in mouse BA/F3 cells assessed as inhibition of cell proliferation after 48 hrs by luciferase reporter gene assay in absence of recombinant mouse IL3
[8] = Inhibition of Tel-fused KDR (unknown origin) expressed in mouse BA/F3 cells after 48 hrs by luciferase reporter gene assay in absence of recombinant mouse IL3
[9] = Inhibition of Tel-fused SYK (unknown origin) expressed in mouse BA/F3 cells after 48 hrs by luciferase reporter gene assay in absence of recombinant mouse IL3
[10] = Inhibition of BCR-fused ABL (unknown origin) expressed in mouse BA/F3 cells after 48 hrs by luciferase reporter gene assay in absence of recombinant mouse IL3
[11] = Inhibition of Tel-fused RON (unknown origin) expressed in mouse BA/F3 cells after 48 hrs by luciferase reporter gene assay in absence of recombinant mouse IL3
[12] = Inhibition of Tel-fused ALK (unknown origin) expressed in mouse BA/F3 cells after 48 hrs by luciferase reporter gene assay in absence of recombinant mouse IL3
[13] = Inhibition of Tel-fused MER (unknown origin) expressed in mouse BA/F3 cells after 48 hrs by luciferase reporter gene assay in absence of recombinant mouse IL3
[14] = Inhibition of Tel-fused MET (unknown origin) expressed in mouse BA/F3 cells after 48 hrs by luciferase reporter gene assay in absence of recombinant mouse IL3
[15] = Inhibition of Tel-fused LCK (unknown origin) expressed in mouse BA/F3 cells after 48 hrs by luciferase reporter gene assay in absence of recombinant mouse IL3
[16] = Inhibition of Tel-fused INSR (unknown origin) expressed in mouse BA/F3 cells after 48 hrs by luciferase reporter gene assay in absence of recombinant mouse IL3
[17] = Inhibition of Tel-fused FLT3 (unknown origin) expressed in mouse BA/F3 cells after 48 hrs by luciferase reporter gene assay in absence of recombinant mouse IL3
[18] = Inhibition of Tel-fused TIE1 (unknown origin) expressed in mouse BA/F3 cells after 48 hrs by luciferase reporter gene assay in absence of recombinant mouse IL3
[19] = Inhibition of Tel-fused FLT1 (unknown origin) expressed in mouse BA/F3 cells after 48 hrs by luciferase reporter gene assay in absence of recombinant mouse IL3
[20] = Inhibition of Tel-fused BRAF (unknown origin) expressed in mouse BA/F3 cells after 48 hrs by luciferase reporter gene assay in absence of recombinant mouse IL3
[21] = Inhibition of Tel-fused IGF1R (unknown origin) expressed in mouse BA/F3 cells after 48 hrs by luciferase reporter gene assay in absence of recombinant mouse IL3
[22] = Inhibition of Tel-fused FGFR3 (unknown origin) expressed in mouse BA/F3 cells after 48 hrs by luciferase reporter gene assay in absence of recombinant mouse IL3
[23] = Inhibition of Tel-fused FGFR4 (unknown origin) expressed in mouse BA/F3 cells after 48 hrs by luciferase reporter gene assay in absence of recombinant mouse IL3
[24] = Inhibition of Tel-fused ZAP70 (unknown origin) expressed in mouse BA/F3 cells after 48 hrs by luciferase reporter gene assay in absence of recombinant mouse IL3
[25] = Inhibition of Tel-fused PDGFRbeta (unknown origin) expressed in mouse BA/F3 cells after 48 hrs by luciferase reporter gene assay in absence of recombinant mouse IL3
[26] = Inhibition of Tel-fused TRKA (unknown origin) overexpressed in mouse BA/F3 cells assessed as inhibition of cell proliferation after 48 hrs by luciferase reporter gene assay in absence of recombinant mouse IL3
[27] = Inhibition of NGF-activated full length TRKA (unknown origin) expressed in mouse BA/F3 cells assessed as inhibition of cell proliferation
[28] = Inhibition of NMP-fused ALK (unknown origin) expressed in mouse BA/F3 cells after 48 hrs by luciferase reporter gene assay in absence of recombinant mouse IL3
[29] = Inhibition of Tel-fused SRC (unknown origin) expressed in mouse BA/F3 cells after 48 hrs by luciferase reporter gene assay in absence of recombinant mouse IL3
[30] = Inhibition of Tel-fused LYN (unknown origin) expressed in mouse BA/F3 cells after 48 hrs by luciferase reporter gene assay in absence of recombinant mouse IL3
[31] = Inhibition of Tel-fused TYRO3 (unknown origin) expressed in mouse BA/F3 cells after 48 hrs by luciferase reporter gene assay in absence of recombinant mouse IL3
[32] = Inhibition of TPM3-fused TRKA (unknown origin) expressed in human KM12 cells assessed as inhibition of cell proliferation after 48 hrs by luciferase reporter gene assay
[33] = Inhibition of Tel-fused RET (unknown origin) expressed in mouse BA/F3 cells after 48 hrs by luciferase reporter gene assay in absence of recombinant mouse IL3

- IC50 [1]: > 10000 nM
- IC50 [2]: 8700 nM
- IC50 [3]: 600 nM
- IC50 [4]: > 10000 nM
- IC50 [5]: 5500 nM
- IC50 [6]: 1 nM
- IC50 [7]: 1 nM
Compound: Fc1cccc([C@H]2CCCN2c2ccc3ncc(-c4ccccn4)n3n2)c1

- IC50 [1]: 3400 nM
- IC50 [8]: 4100 nM
- IC50 [9]: 4000 nM
- IC50 [2]: 6400 nM
- IC50 [10]: 3800 nM
- IC50 [11]: 6100 nM
- IC50 [3]: 300 nM
- IC50 [4]: 9700 nM
- IC50 [12]: 3100 nM
- IC50 [5]: 2200 nM
- IC50 [13]: 5400 nM
- IC50 [14]: 5100 nM
- IC50 [15]: 2000 nM
- IC50 [16]: 8600 nM
- IC50 [17]: 720 nM
- IC50 [18]: 5500 nM
- IC50 [19]: 3000 nM
- IC50 [20]: 2500 nM
- IC50 [21]: 4000 nM
- IC50 [22]: 3900 nM
- IC50 [23]: 5900 nM
- IC50 [24]: 6400 nM
- IC50 [25]: 2000 nM
- IC50 [6]: 270 nM
- IC50 [7]: 100 nM
- IC50 [26]: 850 nM
Compound: N#Cc1ccc(-c2cnc3ccc(NCc4ccccc4)nn23)cc1

- IC50 [27]: 3 nM
- IC50 [1]: 5300 nM
- IC50 [8]: 5000 nM
- IC50 [9]: 7900 nM
- IC50 [10]: 5200 nM
- IC50 [11]: 4800 nM
- IC50 [28]: 3000 nM
- IC50 [3]: 210 nM
- IC50 [4]: 4300 nM
- IC50 [12]: 3900 nM
- IC50 [29]: 4600 nM
- IC50 [5]: 7000 nM
- IC50 [13]: 5100 nM
- IC50 [15]: 5200 nM
- IC50 [30]: 4900 nM
- IC50 [17]: 4300 nM
- IC50 [19]: 5300 nM
- IC50 [22]: 5000 nM
- IC50 [31]: 5000 nM
- IC50 [23]: 4400 nM
- IC50 [25]: 4600 nM
- IC50 [32]: 10 nM
- IC50 [6]: 4 nM
- IC50 [7]: 2 nM
- IC50 [26]: 4 nM
Compound: OC1CCN(c2cc(-c3cnc4ccc(N5CCC[C@@H]5c5cccc(F)c5)nn34)ccn2)CC1

- IC50 [27]: 1 nM
- IC50 [1]: 2500 nM
- IC50 [8]: 1000 nM
- IC50 [9]: 4400 nM
- IC50 [10]: 2400 nM
- IC50 [28]: 1200 nM
- IC50 [3]: 60 nM
- IC50 [33]: 3700 nM
- IC50 [12]: 2200 nM
- IC50 [29]: 2500 nM
- IC50 [5]: 790 nM
- IC50 [14]: 4300 nM
- IC50 [15]: 3000 nM
- IC50 [30]: 3400 nM
- IC50 [16]: 5300 nM
- IC50 [17]: 3300 nM
- IC50 [18]: 4300 nM
- IC50 [20]: 6200 nM
- IC50 [21]: 5100 nM
- IC50 [31]: 5200 nM
- IC50 [23]: 5300 nM
- IC50 [24]: 5200 nM
- IC50 [25]: 2200 nM
- IC50 [32]: 1 nM
- IC50 [6]: 1 nM
- IC50 [7]: < 1 nM
- IC50 [26]: 1 nM
Compound: O=C(O)CN1CCN(c2cc(-c3cnc4ccc(N5CCC[C@@H]5c5cccc(F)c5)nn34)ccn2)CC1

- IC50 [6]: 29 nM
Compound: N#Cc1ccc(-c2cnc3ccc(N4CCCC4c4cccc(F)c4)nn23)cc1 (centres undefined)

- IC50 [6]: 1970 nM
Compound: N#Cc1ccc(-c2cnc3ccc(N4CCC[C@H]4c4cccc(F)c4)nn23)cc1

- IC50 [6]: 11 nM
Compound: N#Cc1ccc(-c2cnc3ccc(N4CCC[C@@H]4c4cccc(F)c4)nn23)cc1

- IC50 [6]: 13 nM
- IC50 [26]: 27 nM
Compound: NS(=O)(=O)c1ccc(-c2cnc3ccc(NCc4cccc(F)c4)nn23)cc1

- IC50 [6]: 130 nM
- IC50 [26]: 520 nM
Compound: CN(Cc1ccccc1)c1ccc2ncc(-c3ccc(C#N)cc3)n2n1

- IC50 [6]: 50 nM
Compound: N#Cc1ccc(-c2cnc3ccc(N4CCCCC4c4cccc(F)c4)nn23)cc1 (centres undefined)

- IC50 [6]: 21 nM
- IC50 [26]: 50 nM
Compound: N#Cc1ccc(-c2cnc3ccc(NCc4cccc(F)c4)nn23)cc1

- IC50 [6]: 120 nM
- IC50 [26]: 170 nM
Compound: COc1ccccc1CNc1ccc2ncc(-c3ccc(C#N)cc3)n2n1

- IC50 [6]: 27 nM
- IC50 [26]: 76 nM
Compound: OCc1ccc(-c2cnc3ccc(NCc4cccc(F)c4)nn23)cc1

- IC50 [6]: 7 nM
- IC50 [26]: 6 nM
Compound: O=C(Nc1ccc(-c2cnc3ccc(NCc4cccc(F)c4)nn23)cc1)C1CCOCC1

- IC50 [6]: 200 nM
- IC50 [26]: 740 nM
Compound: N#Cc1cccc(-c2cnc3ccc(NCc4ccccc4)nn23)c1

- IC50 [6]: 4 nM
Compound: OC1CCN(c2cccc(-c3cnc4ccc(N5CCC[C@@H]5c5cccc(F)c5)nn34)n2)CC1
